Results as given in patent US6689803B2, “Compositions and methods for treating surgical adhesions” (Angiotech Pharmaceuticals, Inc., priority 1996, dated 2004).
Like-named read-outs stand apart in the source and are kept apart here.

What was measured:
[1] = tested on: chick chorioallantoic membrane (CAM) vasculature
synoviocytes = experiment: Proliferation assay (MTT); assay type: cell-based; conditions: 24-hour exposure
Method: On day one, 5-10×10^4 synoviocytes were plated per well (96-well plate). Column #1 was kept free of cells (blank). On day 2, the plate was flicked to discard the medium and 200 μl of medium containing various concentrations of drug was added. […] There was no drug added to columns #1 and #2 (blank and untreated control, respectively). The medium containing the drug was discarded and 200 μl of fresh complete medium was added. The cells were then left to grow for an additional 3 to 4 days. On day five, 20 μl of dimethylthiazol diphenyltetrazolium bromide salt (MTT) (5 mg/ml PBS) was added and allowed to incubate for 4 hours at 37° C. The medium was decanted and 200 μl of DMSO was added.
The data were expressed as the % of survival which was obtained by dividing the number of cells remaining after treatment by the number of cells in the untreated control column #2 (the number of cells was obtained from a standard done prior to the assay).

neutrophils [2] = experiment: Superoxide anion generation by neutrophils; assay type: cell-based, human; conditions: 17 μM; CPPD crystals
Method: (§1) All experiments that studied neutrophil responses to crystals or zymosan in the presence of paclitaxel were performed using plasma opsonized CPPD or zymosan. Opsonization of crystals or zymosan was done with 50% heparinized plasma at a concentration of 75 mg of CPPD or 12 mg of zymosan per ml of 50% plasma Crystals or zymosan were incubated with plasma for 30 minutes at 37° C. and then washed in excess HBSS.
(§2) Neutrophil viability and purity was always greater than 90%.
Superoxide anion concentrations were measured using the superoxide dismutase inhibitable reduction of cytochrome C assay. Briefly, 25 mg of crystals or 0.5 mg of zymosan was placed in a 1.5 ml capped Eppendorf tube and warmed to 37° C. 0.5 ml of cells at 37° C. were added together with ferricytochrome C (final concentration 1.2 mg/ml) and the cells were activated by shaking the capped tubes. At appropriate times tubes were centrifuged at 10,000 g for 10 seconds and the supernatant collected for assay be measuring the absorbance of 550 nm. Control tubes were set up under the same conditions with the inclusion of superoxide dismutase at 600 units per ml.

aggrecan mRNA = experiment: Expression of proteoglycan (aggrecan) in chondrocytes; assay type: cell-based, calf; conditions: all concentrations evaluated (10^−7 M to 10^−4 M)
Method: Primary chondrocyte cultures were freshly isolated from calf cartilage. The cells were plated at 2.5×10^6 per ml in 100×20 mm culture dishes and incubated in Ham's F12 medium containing 5% FBS overnight at 37° C. The cells were starved in serum-free medium overnight and then treated with anti-microtubule agents at various concentrations (10^−7 M, 10^−6 M, 10^−5 M and 10^−4 M) for 6 hours. […] Total RNA was isolated by the acidified guanidine isothiocyanate method and subjected to electrophoresis on a denatured gel. […] The exposed films were scanned and quantitatively analyzed with ImageQuant.

neutrophils [3] = experiment: Neutrophil degranulation assay (myeloperoxidase, lysozyme release); assay type: cell-based, human; conditions: 17 μM; CPPD crystals
Method: as §2
One and a half milliliter Eppendorf tubes containing either 25 mg of CPPD or 1 mg of zymosan were preheated to 37° C. 0.5 ml of cells at 37° C. were added followed by vigorous shaking to initiate the reactions. At appropriate times, tubes were centrifuged at 10,000 g for 10 seconds and 0.4 ml of supernatant was stored at −20° C. for later assay.
Lysozyme was measured by the decrease in absorbance at 450 nm of a Micrococcus lysodeikticus suspension. Briefly, Micrococcus lysodeikticus was suspended at 0.1 mg/ml in 65 mM potassium phosphate buffer, pH 6.2 and the absorbance at 450 nm was adjusted to 0.7 units by dilution. The crystal (or zymosan) and cell supernatant (100 μl) was added to 2.5 ml of the Micrococcus suspension and the decrease in absorbance was monitored. Lysozyme standards (chicken egg white) in the 0 to 2000 units/ml range were prepared and a calibration graph of lysozyme concentration against the rate of decrease in the absorbance at 450 nm was obtained.
Myeloperoxidase (MPO) activity was measured by the increase in absorbance at 450 nm that accompanies the oxidation of dianisidine. 7.8 mg of dianisidine was dissolved in 100 ml of 0.1 M citrate buffer, pH 5.5 at […] by sonication. To a 1 ml cuvette, 0.89 ml of the dianisidine solution was added, followed by 50 μl of 1% Triton x 100, 10 μl of a 0.05% hydrogen peroxide in water solution and 50 μl of crystal-cell supernatant. MPO activity was determined from the change in absorbance (450 nm) per minute, Delta Å 450, using the following equation: […]

neutrophils [4] = experiment: Neutrophil chemiluminescence assay (opsonized CPPD crystals or zymosan); assay type: cell-based, human
Method: as §1, §2
A stock solution of LY290181 at 100 μM in HBSS was freshly prepared.
All chemiluminescence studies were performed at a cell concentration of 5,000,000 cells/ml in HBSS with CPPD (50 mg/ml). In all experiments 0.5 ml of cells was added to 25 mg of CPPD or 0.5 mg of zymosan in 1.5 ml capped Eppendorf tubes. 10 μl of luminol dissolved in 25% DMSO in HBSS was added to a final concentration of 1 μM and the samples were mixed to initiate neutrophil activation by the crystals or zymosan. Chemiluminescence was monitored using an LKB Luminometer (Model 1250) at 37° C. for 20 minutes with shaking immediately prior to measurements to resuspend the crystals or zymosan. Control tubes contained cells, drug and luminol (crystals absent).

collagenase (MMP-1) mRNA = experiment: IL-1 induced collagenase mRNA expression in chondrocytes (Northern blot); assay type: cell-based, calf; conditions: pre-incubation 6 hours, IL-1 20 ng/ml 18 hours
Method: Total RNA was isolated, and the MMP-1 mRNA levels were determined by Northern blot analysis. The blots were subsequently stripped and reprobed with ^32P-radiolabeled rat GAPDH cDNA, which was used as a housekeeping gene. The results shown are representative of four independent experiments. Quantitation of collagenase-1 and stromelysin-expression mRNA levels. The MMP-1 and MMP-3 expression levels were normalized with GAPDH.
Primary chondrocyte cultures were freshly isolated from calf cartilage. The cells were plated at 2.5×10^6 per ml in 100×20 mm culture dishes and incubated in Ham's F12 medium containing 5% FBS overnight at 37° C. […] IL-1 (20 ng/ml) was then added to each plate and the plates incubated for an additional 18 hours. Total RNA was isolated by the acidified guanidine isothiocyanate method and subjected to electrophoresis on a denatured gel. Denatured RNA samples (15 μg) were analyzed by gel electrophoresis in a 1% denatured gel, transferred to a nylon membrane and hydridized with the ^32P-labeled collagenase cDNA probe. ^32P-labeled glyceraldehyde phosphate […] (GAPDH) cDNA as an internal standard to ensure roughly equal loading. The exposed films were scanned and quantitatively analyzed with ImageQuant.

[5] = tested on: collagen-induced arthritis; experiment: CIA rat model, intraperitoneal micellar paclitaxel; assay type: in vivo
Method: As a comparison with standard therapy, a third group received methotrexate at 0.3 mg/kg i.p. (human equivalent dose) on days 0, 5 and 10 post-arthritis onset. […] The control (group 5) and experimental animals were evaluated for disease severity both clinically and radiographically by individuals blinded to treatment groups.
The severity of inflammation for each limb was evaluated daily and scored based on standardized levels of swelling and periarticular erythema (0 being normal and 4 severe). Animals were evaluated radiographically on day 28 of the experiment. […] Histological assessment of the joints was completed at the conclusion of the experiment.

Which Inhibition/n ([1]; PCL paste (3 mg), 10%) does the source give for CCc1occc(=O)c1[O-].CCc1occc(=O)c1[O-].[O-2].[V+4] [BEOV] here?
The Inhibition/n was “too toxic”.

Which results are given for Cc1occc(=O)c1[O-].Cc1occc(=O)c1[O-].[O]=[V+2] [BMOV]?
Inhibition/n ([1]; PCL paste (3 mg), 10%): too toxic; Inhibition/n ([1]; PCL paste (3 mg), 25%): too toxic; Inhibition/n ([1]; PCL paste (3 mg), 35%): too toxic

With N#CC1=C(N)Oc2c(ccc3ccccc23)C1c1cccnc1 (stereo not shown) [LY290181, 2-amino-4-(3-pyridyl)-4H-naphtho(1,2-b)pyran-3-cardonitrile] as the compound, how does the IC50 (synoviocytes) read?
Its IC50 is less than 0.005 µM.

And the superoxide anion production (neutrophils [2])?
Its superoxide anion production is “decrease in the amount of superoxide generated”.

What about the expression of aggrecan (aggrecan mRNA) of the same compound?
The expression of aggrecan was “did not affect the expression of aggrecan”.

What about the lysozyme release (neutrophils [3]) of the same compound?
Its lysozyme release is “decreased both lysozyme and myeloperoxidase release”.

What about the myeloperoxidase release (neutrophils [3]) of the same compound?
Its myeloperoxidase release is “decreased both lysozyme and myeloperoxidase release”.

What about the Inhibition/n ([1]; PCL paste (3 mg), 1%) of the same compound?
Its Inhibition/n is “did not induce an anti-angiogenesis response”.

What about the Inhibition/n ([1]; PCL paste (3 mg), 5%) of the same compound?
Its Inhibition/n is “⅓”.

What about the “inhibition of plasma opsonized zymosan-induced neutrophil chemiluminescence” value (neutrophils [4]; 0.5 to 50 μM) of the same compound?
Its value is “strong inhibition”.

What about the “prevented IL-1-induced collagenase expression at concentrations as low as” value (collagenase (MMP-1) mRNA) of the same compound?
Its value is 100 nM.

COC(=O)/C=C/c1cc(O)ccc1O [MDHC] was tested. Which Inhibition/n ([1]; PCL paste (3 mg), 20%) did it give?
Its Inhibition/n is 0/8.

Which expression of aggrecan (aggrecan mRNA) does the source give for [2H]O[2H] [deuterium oxide] here?
Its expression of aggrecan is “did not affect the expression of aggrecan”.

What about the “prevented IL-1-induced collagenase expression at concentrations as low as” value (collagenase (MMP-1) mRNA) of the same compound?
The value was 100 nM.

How did the IC50 (synoviocytes) turn out when C/C(=C\c1csc(C)n1)[C@@H]1C[C@@H]2O[C@]2(C)CCC[C@H](C)[C@H](O)[C@@H](C)C(=O)C(C)(C)[C@@H](O)CC(=O)O1 [epothilone B] was run?
Its IC50 is roughly 0.045 µM.

And the expression of aggrecan (aggrecan mRNA)?
The expression of aggrecan was “did not affect the expression of aggrecan”.

And the “prevented IL-1-induced collagenase expression at concentrations as low as” value (collagenase (MMP-1) mRNA)?
Its value is 100 nM.

What does the source list for CCOC(=O)CN [glycine ethyl ester]?
expression of aggrecan (aggrecan mRNA): did not affect the expression of aggrecan; inhibition of plasma opsonized zymosan-induced neutrophil chemiluminescence (neutrophils [4]; 0.5 to 20 mM): strong inhibition; prevented IL-1-induced collagenase expression at concentrations as low as (collagenase (MMP-1) mRNA): 100 nM

Which results are given for CC(O)CC(C)(C)O (stereo not shown) [hexylene glycol, 2-methyl-2,4-pentanediol]?
expression of aggrecan (aggrecan mRNA): did not affect the expression of aggrecan; prevented IL-1-induced collagenase expression at concentrations as low as (collagenase (MMP-1) mRNA): 100 nM

Which results are given for O=C(O)c1cc(NCc2cc(O)ccc2O)ccc1O [lavendustine-c]?
Inhibition/n ([1]; PCL paste (3 mg), 10%): 0/14; Inhibition/n ([1]; PCL paste (3 mg), 20%): 0/10

CN(Cc1cnc2nc(N)nc(N)c2n1)c1ccc(C(=O)N[C@@H](CCC(=O)O)C(=O)O)cc1 [methotrexate] was tested. Which “Percentage of Animals with Erosions” value ([5]; 0.3 mg/kg) did it give?
Its value is 76%.

What about the “Radiographic Score” value ([5]; 0.3 mg/kg) of the same compound?
Its value is 4.25 ± 0.64.

And the “Antibody to Collagenase II” value ([5]; 0.3 mg/kg i.p.)?
Its value is 0.182 ± 0.0034.

And the “Arthritic Index on Day 10” value ([5]; 0.3 mg/kg i.p.)?
The value was 5.4 ± 0.6.

And the “Maximum Mean Arthritis Score” value ([5]; 0.3 mg/kg i.p.)?
The value was 5.7 ± 0.6.

[O]=[V]([O-])([O-])[O-] [vanadate] was tested. Which Inhibition/n ([1]; in vivo) did it give?
The Inhibition/n was 0/5.

With O=S(=O)([O-])[O-].[O]=[V+2] [vanadyl sulphate] as the compound, how does the Inhibition/n ([1]; in vivo) read?
The Inhibition/n was 0/3.

Which results are given for CC[C@]1(O)C[C@H]2CN(CCc3c([nH]c4ccccc34)[C@@](C(=O)OC)(c3cc4c(cc3OC)N(C=O)[C@H]3[C@@](O)(C(=O)OC)[C@H](OC(C)=O)[C@]5(CC)C=CCN6CC[C@]43[C@@H]65)C2)C1 [vincristine]?
Inhibition/n ([1]; PCL paste (3 mg), 1%): too toxic; Inhibition/n ([1]; PCL paste (3 mg), 2%): too toxic; toxicity to the embryo ([1]; PCL paste, concentrations exceeding 2%): unexpected embryonic death occurred; Inhibition/n ([1]; methylcellulose (10 ul), 1 ug): too toxic; Inhibition/n ([1]; methylcellulose (10 ul), 9 ug): too toxic

With aluminum fluoride as the compound, how does the IC50 (synoviocytes) read?
Its IC50 is roughly 32 µM.

And the expression of aggrecan (aggrecan mRNA)?
The expression of aggrecan was “did not affect the expression of aggrecan”.

And the “inhibition of plasma opsonized zymosan-induced neutrophil chemiluminescence” value (neutrophils [4]; 5 to 100 mM)?
The value was “strong inhibition”.

And the “prevented IL-1-induced collagenase expression at concentrations as low as” value (collagenase (MMP-1) mRNA)?
The value was 100 nM.

Which results are given for baccatin?
Inhibition/n ([1]; methylcellulose (5 ul), 5 ug): 4/7; Inhibition/n ([1]; paste (2 mg), 2 ug): 2/3

Which expression of aggrecan (aggrecan mRNA) does the source give for “ethylene glycol bis-(succinimidylsuccinate)” here?
Its expression of aggrecan is “did not affect the expression of aggrecan”.

What about the “prevented IL-1-induced collagenase expression at concentrations as low as” value (collagenase (MMP-1) mRNA) of the same compound?
Its value is 100 nM.

Which Inhibition/n ([1]; PCL paste (3 mg), 2%) does the source give for herbimysin here?
The Inhibition/n was 3/4.

What about the Inhibition/n ([1]; in vivo) of the same compound?
Its Inhibition/n is 1/1.

How did the Inhibition/n ([1]; methylcellulose (10 ul), 100 ul ^) turn out when protamine sulphate was run?
The Inhibition/n was 1/10.
